In brackets after ≈: the same amount, converted by molar mass. Starred links: 1 amine or outer side, 2 acyl side, 3 side chain; linkers in the order of their positions; H or OH if unused. Non-standard residues stand in square brackets, D forms with d. Residues, ends and D or L forms follow the SMILES beside them. *: point of attachment. Cyclohexanecarbonyl = O=C(C1CCCCC1)*; Morpholinoacetyl = O=C(CN1CCOCC1)*; 4Pal = N[C@@H](Cc1ccncc1)C(=O)O; NH(4-F-phenyl) = Fc1ccc(N*)cc1; CO = O=C([*:1])[*:2]; Inp = O=C(O)C1CCNCC1; AEA = NCCOCC(=O)O; Ms = CS(=O)(=O)*
How the values were obtained:
Conditions in all cases: 24 h
C. albicans = test system: C. albicans
C. glabrata = test system: C. glabrata
C. parapsilosis = test system: C. parapsilosis
C. krusei = test system: C. krusei
C. auris = test system: C. auris
C. tropicalis = test system: C. tropicalis
C. dubliniensis = test system: C. dubliniensis

SMILES	MIC C. albicans (C. albicans) [µg/mL]	MIC C. glabrata (C. glabrata) [µg/mL]	MIC C. parapsilosis (C. parapsilosis) [µg/mL]	MIC C. krusei (C. krusei) [µg/mL]	MIC C. auris (C. auris) [µg/mL]	MIC C. tropicalis (C. tropicalis) [µg/mL]	MIC C. dubliniensis (C. dubliniensis) [µg/mL]
N=C(N)NCCC[C@@H](N)C(=O)N[C@@H](CCCNC(=N)N)C(=O)N[C@H](CCCNC(=N)N)C(=O)N1CCC[C@H]1C(=O)N[C@H](CCCNC(=N)N)C(=O)N[C@@H](CCCNC(=N)N)C(=O)N[C@H](CCCNC(=N)N)C(=O)N1CCC[C@H]1C(=O)N[C@H](CCCNC(=N)N)C(=O)N[C@@H](CCCNC(=N)N)C(=O)N[C@H](CCCNC(=N)N)C(=O)N[C@@H](CCCNC(=N)N)C(=O)N1CCC[C@H]1C(=O)N[C@H](CCCNC(=N)N)C(=O)N[C@@H](CCCNC(=N)N)C(=O)N[C@H](CCCNC(=N)N)C(=O)N[C@@H](CCCNC(=N)N)C(=O)O [SEQ ID NO: 54, rRr-P-rRr-P-rRrR-P-rRrR] (H-[dR]R[dR]P[dR]R[dR]P[dR]R[dR]RP[dR]R[dR]R-OH)	0.25 (≈ 0.1 µM)	0.5 (≈ 0.2 µM)	0.25 (≈ 0.1 µM)	0.5 (≈ 0.2 µM)	2 (≈ 0.801 µM)	0.25 (≈ 0.1 µM)	0.5 (≈ 0.2 µM)
CS(=O)(=O)N[C@H](CCCNC(=N)N)C(=O)N[C@@H](CCCNC(=N)N)C(=O)N[C@H](CCCNC(=N)N)C(=O)N1CCC[C@H]1C(=O)N[C@H](CCCNC(=N)N)C(=O)N[C@@H](CCCNC(=N)N)C(=O)N[C@H](CCCNC(=N)N)C(=O)N1CCC[C@H]1C(=O)N[C@H](CCCNC(=N)N)C(=O)N[C@@H](CCCNC(=N)N)C(=O)N[C@H](CCCNC(=N)N)C(=O)N[C@@H](CCCNC(=N)N)C(=O)N1CCC[C@H]1C(=O)N[C@H](CCCNC(=N)N)C(=O)N[C@@H](CCCNC(=N)N)C(=O)N[C@H](CCCNC(=N)N)C(=O)N[C@@H](CCCNC(=N)N)C(N)=O [SEQ ID NO: 56, CH3SO2NH-rRr-P-rRr-P-rRrR-P-rRrR-NH2] (Ms-[dR]R[dR]P[dR]R[dR]P[dR]R[dR]RP[dR]R[dR]R-NH2)	0.5 (≈ 0.194 µM)	0.5 (≈ 0.194 µM)	0.25 (≈ 0.0972 µM)	1 (≈ 0.389 µM)	0.5 (≈ 0.194 µM)	0.5 (≈ 0.194 µM)	0.5 (≈ 0.194 µM)
N=C(N)NCCC[C@H](NC(=O)[C@@H](CCCNC(=N)N)NC(=O)[C@H](CCCNC(=N)N)NC(=O)[C@@H](CCCNC(=N)N)NC(=O)[C@@H]1CCCN1C(=O)[C@H](CCCNC(=N)N)NC(=O)[C@@H](CCCNC(=N)N)NC(=O)[C@H](CCCNC(=N)N)NC(=O)[C@@H](CCCNC(=N)N)NC(=O)[C@@H]1CCCN1C(=O)[C@@H](CCCNC(=N)N)NC(=O)[C@H](CCCNC(=N)N)NC(=O)[C@@H](CCCNC(=N)N)NC(=O)[C@@H]1CCCN1C(=O)[C@@H](CCCNC(=N)N)NC(=O)[C@H](CCCNC(=N)N)NC(=O)[C@@H](CCCNC(=N)N)NC(=O)Nc1ccc(F)cc1)C(N)=O [SEQ ID NO: 57, 4-FPhNHC(O)NH-rRr-P-rRr-P-rRrR-P-rRrR-NH2] ({NH(4-F-phenyl)-CO}-[dR]R[dR]P[dR]R[dR]P[dR]R[dR]RP[dR]R[dR]R-NH2)	0.5 (≈ 0.19 µM)	0.5 (≈ 0.19 µM)	0.5 (≈ 0.19 µM)	1 (≈ 0.38 µM)	0.5 (≈ 0.19 µM)	0.5 (≈ 0.19 µM)	0.5 (≈ 0.19 µM)
N=C(N)NCCC[C@H](NC(=O)[C@@H](CCCNC(=N)N)NC(=O)[C@H](CCCNC(=N)N)NC(=O)[C@@H](CCCNC(=N)N)NC(=O)[C@@H]1CCCN1C(=O)[C@H](CCCNC(=N)N)NC(=O)[C@@H](CCCNC(=N)N)NC(=O)[C@H](CCCNC(=N)N)NC(=O)[C@@H](CCCNC(=N)N)NC(=O)[C@@H]1CCCN1C(=O)[C@@H](CCCNC(=N)N)NC(=O)[C@H](CCCNC(=N)N)NC(=O)[C@@H](CCCNC(=N)N)NC(=O)[C@@H]1CCCN1C(=O)[C@@H](CCCNC(=N)N)NC(=O)[C@H](CCCNC(=N)N)NC(=O)[C@@H](CCCNC(=N)N)NC(=O)C1CCCCC1)C(N)=O [SEQ ID NO: 58, cHexC(O)NH-rRr-P-rRr-P-rRrR-P-rRrR-NH2] (Cyclohexanecarbonyl-[dR]R[dR]P[dR]R[dR]P[dR]R[dR]RP[dR]R[dR]R-NH2; N-terminus and C-terminus assumed)	1 (≈ 0.384 µM)	1 (≈ 0.384 µM)	0.5 (≈ 0.192 µM)	2 (≈ 0.768 µM)	1 (≈ 0.384 µM)	1 (≈ 0.384 µM)	0.5 (≈ 0.192 µM)
N=C(N)NCCC[C@H](NC(=O)[C@@H](CCCNC(=N)N)NC(=O)[C@H](CCCNC(=N)N)NC(=O)[C@@H](CCCNC(=N)N)NC(=O)[C@@H]1CCCN1C(=O)[C@H](CCCNC(=N)N)NC(=O)[C@@H](CCCNC(=N)N)NC(=O)[C@H](CCCNC(=N)N)NC(=O)[C@@H](CCCNC(=N)N)NC(=O)[C@@H]1CCCN1C(=O)[C@@H](CCCNC(=N)N)NC(=O)[C@H](CCCNC(=N)N)NC(=O)[C@@H](CCCNC(=N)N)NC(=O)[C@@H]1CCCN1C(=O)[C@@H](CCCNC(=N)N)NC(=O)[C@H](CCCNC(=N)N)NC(=O)[C@@H](CCCNC(=N)N)NC(=O)CN1CCOCC1)C(N)=O [SEQ ID NO: 59, MorpholineCH2C(O)NH-rRr-P-rRr-P-rRrR-P-rRrR-NH2] (Morpholinoacetyl-[dR]R[dR]P[dR]R[dR]P[dR]R[dR]RP[dR]R[dR]R-NH2)	0.5 (≈ 0.191 µM)	0.5 (≈ 0.191 µM)	0.5 (≈ 0.191 µM)	2 (≈ 0.763 µM)	4 (≈ 1.53 µM)	0.5 (≈ 0.191 µM)	0.5 (≈ 0.191 µM)
N=C(N)NCCC[C@@H](N)C(=O)N[C@@H](CCCNC(=N)N)C(=O)N[C@H](CCCNC(=N)N)C(=O)N[C@@H](CCCNC(=N)N)C(=O)N1CCC[C@H]1C(=O)N[C@H](CCCNC(=N)N)C(=O)N[C@@H](CCCNC(=N)N)C(=O)N[C@H](CCCNC(=N)N)C(=O)N[C@@H](CCCNC(=N)N)C(=O)N1CCC[C@H]1C(=O)N[C@H](CCCNC(=N)N)C(=O)N[C@@H](CCCNC(=N)N)C(=O)N[C@H](CCCNC(=N)N)C(=O)N[C@@H](CCCNC(=N)N)C(N)=O [SEQ ID NO: 67, rRrR-P-rRrR-P-rRrR-NH2] (H-[dR]R[dR]RP[dR]R[dR]RP[dR]R[dR]R-NH2)	0.25 (≈ 0.12 µM)	0.5 (≈ 0.24 µM)	0.25 (≈ 0.12 µM)	0.5 (≈ 0.24 µM)	4 (≈ 1.92 µM)	0.5 (≈ 0.24 µM)	0.25 (≈ 0.12 µM)
N=C(N)NCCC[C@@H](N)C(=O)N[C@@H](CCCNC(=N)N)C(=O)N[C@H](CCCNC(=N)N)C(=O)N[C@@H](Cc1ccncc1)C(=O)N[C@H](CCCNC(=N)N)C(=O)N[C@@H](CCCNC(=N)N)C(=O)N[C@H](CCCNC(=N)N)C(=O)N[C@@H](Cc1ccncc1)C(=O)N[C@H](CCCNC(=N)N)C(=O)N[C@@H](CCCNC(=N)N)C(=O)N[C@H](CCCNC(=N)N)C(=O)N[C@@H](CCCNC(=N)N)C(=O)N[C@@H](Cc1ccncc1)C(=O)N[C@H](CCCNC(=N)N)C(=O)N[C@@H](CCCNC(=N)N)C(=O)N[C@H](CCCNC(=N)N)C(=O)N[C@@H](CCCNC(=N)N)C(N)=O [SEQ ID NO: 77, rRr-(4-PyrAla)-rRr-(4-PyrAla)-rRrR-(4-PyrAla)-rRrR-NH2] (H-[dR]R[dR][4Pal][dR]R[dR][4Pal][dR]R[dR]R[4Pal][dR]R[dR]R-NH2)	0.5 (≈ 0.189 µM)	0.5 (≈ 0.189 µM)	0.25 (≈ 0.0944 µM)	0.5 (≈ 0.189 µM)	0.5 (≈ 0.189 µM)	0.5 (≈ 0.189 µM)	0.5 (≈ 0.189 µM)

The remaining lines, values ahead:

MIC C. albicans (C. albicans) [µg/mL]	MIC C. glabrata (C. glabrata) [µg/mL]	MIC C. parapsilosis (C. parapsilosis) [µg/mL]	MIC C. krusei (C. krusei) [µg/mL]	MIC C. auris (C. auris) [µg/mL]	MIC C. tropicalis (C. tropicalis) [µg/mL]	MIC C. dubliniensis (C. dubliniensis) [µg/mL]	SMILES
0.5 (≈ 0.2 µM)	1 (≈ 0.399 µM)	0.25 (≈ 0.0998 µM)	0.5 (≈ 0.2 µM)	8 (≈ 3.19 µM)	0.5 (≈ 0.2 µM)	0.5 (≈ 0.2 µM)	N=C(N)NCCC[C@@H](N)C(=O)N[C@@H](CCCNC(=N)N)C(=O)N[C@H](CCCNC(=N)N)C(=O)NCCNCC(=O)N[C@H](CCCNC(=N)N)C(=O)N[C@@H](CCCNC(=N)N)C(=O)N[C@H](CCCNC(=N)N)C(=O)NCCNCC(=O)N[C@H](CCCNC(=N)N)C(=O)N[C@@H](CCCNC(=N)N)C(=O)N[C@H](CCCNC(=N)N)C(=O)N[C@@H](CCCNC(=N)N)C(=O)NCCNCC(=O)N[C@H](CCCNC(=N)N)C(=O)N[C@@H](CCCNC(=N)N)C(=O)N[C@H](CCCNC(=N)N)C(=O)N[C@@H](CCCNC(=N)N)C(N)=O [SEQ ID NO: 46, rRr-(Aeg)-rRr-(Aeg)-rRrR-(Aeg)-rRrR-NH2]
0.5 (≈ 0.199 µM)	0.5 (≈ 0.199 µM)	0.25 (≈ 0.0997 µM)	0.5 (≈ 0.199 µM)	1 (≈ 0.399 µM)	0.5 (≈ 0.199 µM)	0.5 (≈ 0.199 µM)	N=C(N)NCCC[C@@H](N)C(=O)N[C@@H](CCCNC(=N)N)C(=O)N[C@H](CCCNC(=N)N)C(=O)NCCOCC(=O)N[C@H](CCCNC(=N)N)C(=O)N[C@@H](CCCNC(=N)N)C(=O)N[C@H](CCCNC(=N)N)C(=O)NCCOCC(=O)N[C@H](CCCNC(=N)N)C(=O)N[C@@H](CCCNC(=N)N)C(=O)N[C@H](CCCNC(=N)N)C(=O)N[C@@H](CCCNC(=N)N)C(=O)NCCOCC(=O)N[C@H](CCCNC(=N)N)C(=O)N[C@@H](CCCNC(=N)N)C(=O)N[C@H](CCCNC(=N)N)C(=O)N[C@@H](CCCNC(=N)N)C(N)=O [SEQ ID NO: 52, rRr-(Aea)-rRr-(Aea)-rRrR-(Aea)-rRrR-NH2] (H-[dR]R[dR][AEA][dR]R[dR][AEA][dR]R[dR]R[AEA][dR]R[dR]R-NH2)
0.5 (≈ 0.197 µM)	0.5 (≈ 0.197 µM)	0.25 (≈ 0.0985 µM)	1 (≈ 0.394 µM)	0.5 (≈ 0.197 µM)	0.5 (≈ 0.197 µM)	0.5 (≈ 0.197 µM)	N=C(N)NCCC[C@@H](N)C(=O)N[C@@H](CCCNC(=N)N)C(=O)N[C@H](CCCNC(=N)N)C(=O)N1CCC(C(=O)N[C@H](CCCNC(=N)N)C(=O)N[C@@H](CCCNC(=N)N)C(=O)N[C@H](CCCNC(=N)N)C(=O)N2CCC(C(=O)N[C@H](CCCNC(=N)N)C(=O)N[C@@H](CCCNC(=N)N)C(=O)N[C@H](CCCNC(=N)N)C(=O)N[C@@H](CCCNC(=N)N)C(=O)N3CCC(C(=O)N[C@H](CCCNC(=N)N)C(=O)N[C@@H](CCCNC(=N)N)C(=O)N[C@H](CCCNC(=N)N)C(=O)N[C@@H](CCCNC(=N)N)C(N)=O)CC3)CC2)CC1 [SEQ ID NO: 74, rRr-(Inp)-rRr-(Inp)-rRrR-(Inp)-rRrR-NH2] (H-[dR]R[dR][Inp][dR]R[dR][Inp][dR]R[dR]R[Inp][dR]R[dR]R-NH2)

Reference: patent US20240360177A1, “PEPTIDES WITH ANTIMICROBIAL ACTIVITIES” (priority 2021, published 2024)
